From US8840873B2, “Method of treating second and third degree burns using oxidative reductive potential water solution” (priority 2005, dated 2014)
Read-outs that look alike come from different tables or passages of the source.

Tests used:
[1] = system: primary HDF cultures; assay: SA-β-galactosidase expression in HDFs after chronic exposure; format: cell-based, human; conditions: 20 population doublings (one month), ORP water solution 10% or HP 5 μM
From the text: The results are depicted in FIG. 6.

[2] = system: human diploid fibroblasts (HDFs); assay: Cell viability, apoptosis and necrosis in HDFs by flow cytometry; conditions: for apoptosis (Annexin-V): 880 mM HP; for necrosis (cells incorporating propidium iodide) / Cell viability (7AAD): pure ORP water solution or 880 mM HP
[3] = system: human diploid fibroblasts (HDFs); assay: 8-OHdG DNA adducts in HDFs (ELISA); conditions: HP 500 μM
[4] = system: murine polychromatic erythrocytes (bone marrow); conditions: mice; for PCE/NCE ratio: intraperitoneal, cyclophosphamide 8 mg/mL, 12.5 ml/kg on day 2
Protocol: The mammalian in vivo micronucleus test is used for the identification of substances which cause damage to chromosomes or the mitotic apparatus of murine polychromatic erythrocytes. This damage results in the formation of “micronuclei,” intracellular structures containing lagging chromosome fragments or isolated whole chromosomes. […] The positive control mice received a single intraperitoneal injection of cyclophosphamide (8 mg/mL, 12.5 ml/kg) on day 2. All mice were observed immediately after injection for any adverse reactions. […] On day 3, all mice were weighed and terminated.
The femurs were excised from the terminated mice, the bone marrow was extracted, and duplicate smear preparations were performed for each mouse. The bone marrow slides for each animal were read at 40× magnification. The ratio of polychromatic erythrocytes (PCE) to normochromatic erythrocytes (NCE), an index of bone marrow toxicity, was determined for each mouse by counting a total of at least 200 erythrocytes. Then a minimum of 2000 scoreable PCE per mouse were evaluated for the incidence of micronucleated polychromatic erythrocytes. Statistical analysis of the data were done using the Mann and Whitney test (at 5% risk threshold) from a statistical software package (Statview 5.0, SAS Institute Inc., USA).

Structure (SMILES)	cells expressing SA-β-Gal [1] [%]	apoptosis (Annexin-V) ([2]; 5 min exposure) [%]	necrosis (cells incorporating propidium iodide) ([2]; 5 min exposure) [%]	Cell viability (7AAD) ([2]; 5 minute exposure) [%]	apoptosis (Annexin-V) ([2]; 30 min exposure) [%]	Cell viability (7AAD) ([2]; 30 min exposure) [%]	necrosis (cells incorporating propidium iodide) ([2]; 30 min exposure) [%]	8-OHdG adducts relative to control-treated cells ([3]; 30 minutes treatment then 3 hour recovery in supplemented DMEM)	8-OHdG adducts relative to control-treated cells ([3]; 30 minutes treatment, DNA extracted right after exposure)	PCE/NCE ratio ([4]; females)	number of polychromatic erythrocytes bearing micronuclei ([4]; males, intraperitoneal 12.5 ml/kg)	PCE/NCE ratio ([4]; males)
OO [HP, hydrogen peroxide]	86	15	20	55	20	5	75	about 5 times	about 25 fold			
O=P1(N(CCCl)CCCl)NCCCO1 (stereo not drawn) [cyclophosphamide]										0.73	11.0	0.77
